Drawing on ChEMBL document CHEMBL2040764, “Bioactive briarane diterpenoids from the South China Sea gorgonian Dichotella gemmacea” (Bioorg Med Chem Lett, 2012), this text covers zone of inhibition, IC50 and Activity for twelve compounds.

For assay [1], the system named is Zymoseptoria tritici. As to the kind of experiment: Antifungal activity against Septoria tritici at 0.05 mg by agar diffusion test. The settings on record: read-out: DIZ.
In assay [2] the test system is Microbotryum violaceum. Kind of assay: Antifungal activity against Microbotryum violaceum at 0.05 mg by agar diffusion test. To be noted: read-out: DIZ. It counts as functional.
The test system of assay [3] is Escherichia coli. Kind of assay: Antibacterial activity against Escherichia coli at 0.05 mg by agar diffusion test. It counts as functional. The settings on record: read-out: DIZ.
The subject of assay [4] is Priestia megaterium. As to the kind of experiment: Antibacterial activity against Bacillus megaterium at 0.05 mg by agar diffusion test. It counts as functional. The settings on record: read-out: DIZ.
Assay [5] relates to Escherichia coli. Kind of assay: Antibacterial activity against Escherichia coli at 2 mg/ml by agar diffusion test. It counts as functional. To be noted: read-out: DIZ.
In assay [6] the test system is Microbotryum violaceum. Kind of assay: Antifungal activity against Microbotryum violaceum at 2 mg/ml by agar diffusion test. It counts as functional. To be noted: read-out: DIZ.
For assay [7], the system named is MG-63. As to the kind of experiment: Cytotoxicity against human MG63 cells by MTT assay. It counts as functional, cell-based.
The subject of assay [8] is A549. As to the kind of experiment: Cytotoxicity against human A549 cells by MTT assay. It counts as functional, cell-based.
For assay [9], the system named is Priestia megaterium. Kind of assay: Antibacterial activity against Bacillus megaterium at 2 mg/ml by agar diffusion test. It counts as functional, organism-based.
For assay [10], the system named is Zymoseptoria tritici (Septoria tritici). As to the kind of experiment: Antifungal activity against Septoria tritici at 2 mg/ml by agar diffusion test. The settings on record: read-out: DIZ.

The source made the active and inactive calls. The rule behind the calls is not given here.

Consider `CN[C@@H]1[C@H](O[C@H]2[C@H](O[C@H]3[C@H](O)[C@@H](O)[C@H](N=C(N)N)[C@@H](O)[C@@H]3N=C(N)N)O[C@@H](C)[C@]2(O)C=O)O[C@@H](CO)[C@H](O)[C@H]1O` [STREPTOMYCIN], for which the zone of inhibition at 50 µg/disc in assay [1] was determined as 11 mm; in [2], 16 mm; in [3], 18 mm; in assay [4], 11 mm.
As for `C=C1CC[C@H](OC(C)=O)[C@@]2(C)[C@@H](OC(C)=O)C[C@@H](OC(=O)CC(C)C)[C@]3(CO3)[C@@H]2[C@H](OC(C)=O)[C@]2(O)[C@@H](C)C(=O)O[C@H]2[C@H]1Cl` [JUNCENOLIDE J], the values for the zone of inhibition at 2000 µg/mL in assay [5], in assay [6] and in [10] were 11 mm, 10 mm and 12 mm, respectively. The IC50 in [7] and in assay [8] was over 46.7 µM in each case. Further, in [9], the result was inactive.
As to `C=C1[C@H]2O[C@]3([C@@H](C)C(=O)O[C@H]3[C@H]1Cl)[C@@H](OC(C)=O)[C@H]1[C@@]3(CO3)[C@H](OC(C)=O)C[C@H](OC(C)=O)[C@]1(C)[C@@H](OC(C)=O)[C@H]2OC(C)=O` (relative stereo), the zone of inhibition at 2000 µg/mL in assay [5] came out at 20 mm; in assay [6] it was 15 mm; in assay [10], 12 mm. For the same compound, the IC50 in assay [7] and in assay [8] was over 45.7 µM in each case. Moreover, in [9], the result was inactive.
For `C=C1[C@H]2O[C@]3([C@@H](C)C(=O)O[C@H]3[C@H]1Cl)[C@@H](OC(C)=O)[C@H]1[C@@]3(CO3)[C@H](OC(=O)CC(C)C)C[C@H](OC(C)=O)[C@]1(C)[C@@H](OC(C)=O)[C@H]2OC(C)=O` (relative stereo), the figures for the zone of inhibition at 2000 µg/mL in assay [5], in [6] and in assay [10] were 34 mm, 11 mm and 13 mm, respectively. In addition, the half-maximal inhibitory concentration (IC50) in assay [7] and in [8] was under 0.3 µM in each case. Besides, the outcome in [9] was inactive.
`CC(=O)N1CCN(c2ccc(OCC3COC(Cn4ccnc4)(c4ccc(Cl)cc4Cl)O3)cc2)CC1` (stereo unspecified) [KETOCONAZOLE]: the zone of inhibition at 50 µg/disc in assay [1] came to 25 mm; in assay [2] it was 30 mm; in [3] it was 18 mm; in assay [4], 18 mm.
For the compound `C=C1[C@H](OC(C)=O)C[C@H](OC(C)=O)[C@@]2(C)[C@@H](OC(C)=O)C[C@@H](OC(=O)CC(C)C)[C@]3(CO3)[C@@H]2[C@H](OC(C)=O)[C@]2(O)[C@@H](C)C(=O)O[C@H]2[C@H]1Cl` (relative stereo), the values for the zone of inhibition at 2000 µg/mL in [5], in [6] and in assay [10] were 19 mm, 14 mm and 14 mm, respectively. Moreover, the IC50 was determined as 18 µM in [7] and 16.9 µM in assay [8]. Also, in assay [9], the outcome was inactive.
`CC1(C)S[C@@H]2[C@H](NC(=O)Cc3ccccc3)C(=O)N2[C@H]1C(=O)O` [PENICILLIN G]: the zone of inhibition at 50 µg/disc in assay [1] came to 12 mm; in [2], 14 mm; in assay [3], 26 mm; in assay [4], 18 mm.
`C=C1[C@H](OC(C)=O)C[C@H](OC(C)=O)[C@@]2(C)[C@@H](OC(C)=O)C[C@@H](OC(C)=O)[C@]3(CO3)[C@@H]2[C@H](OC(C)=O)[C@]2(O)[C@@H](C)C(=O)O[C@H]2[C@H]1Cl` (relative stereo): the zone of inhibition at 2000 µg/mL is 20 mm in assay [5], 11 mm in assay [6] and 13 mm in [10]. Moreover, the IC50 in [7] is 20.5 µM; in assay [8], under 1.5 µM. Further, the result in assay [9] was inactive.
For the compound `C=C1[C@H](Cl)[C@@H]2OC(=O)[C@H](C)[C@]23O[C@@H]1[C@H](OC(C)=O)[C@H](OC(C)=O)[C@@]1(C)[C@@H](OC(C)=O)CC[C@]2(CO2)[C@@H]1[C@@H]3OC(C)=O` [PRAELOLIDE], the zone of inhibition at 2000 µg/mL stood at 18 mm in assay [5], 11 mm in [6] and 15 mm in [10]. Besides, the half-inhibitory concentration (IC50) in assay [7] and in assay [8] was over 50.1 µM each time. In addition, in assay [9], the outcome was inactive.
On to `C=C1[C@H](OC(=O)CC(C)C)C[C@H](OC(C)=O)[C@@]2(C)[C@@H](OC(C)=O)[C@@H](OC(=O)CC(C)C)[C@@H](OC(C)=O)[C@]3(CO3)[C@@H]2[C@H](OC(C)=O)[C@]2(O)[C@@H](C)C(=O)O[C@H]2[C@H]1Cl` (relative stereo), for which the results for the zone of inhibition at 2000 µg/mL in assay [5], in assay [6] and in [10] were 17 mm, 13 mm and 17 mm, respectively. Further, the figures for the IC50 in assay [7] and in assay [8] were 17.4 µM and 19.1 µM, respectively. Moreover, the result in assay [9] was inactive.
In assay [7], `COc1cccc2c1C(=O)c1c(O)c3c(c(O)c1C2=O)C[C@@](O)(C(=O)CO)C[C@@H]3O[C@H]1C[C@H](N)[C@H](O)[C@H](C)O1` [DOXORUBICIN] yielded a concentration for half-maximal inhibition (IC50) of 3.2 µM.
With `C=C1[C@H](OC(C)=O)C[C@H](OC(C)=O)[C@@]2(C)[C@@H](OC(=O)CC(C)C)C[C@@H](OC(C)=O)[C@]3(CO3)[C@@H]2[C@H](OC(C)=O)[C@]2(O)[C@@H](C)C(=O)O[C@H]2[C@H]1Cl` (relative stereo), the zone of inhibition at 2000 µg/mL came to 20 mm in [5], 9.5 mm in assay [6] and 9.5 mm in assay [10]. The 50% inhibitory concentration (IC50) stood at 15.1 µM in assay [7] and 18 µM in [8]. Also, the outcome in assay [9] was inactive.
